Results taken from patent publication US11738006B2, “Pharmaceutical composition containing antifungal agent as active ingredient” (priority 2019, dated 2023).

Test: Test on solubility to polyethylene glycol (visual check for insoluble luliconazole)
Assay type: physicochemical
Method: Examined was how luliconazole is dissolved by polyethylene glycol 200 having an average molecular weight of 190 to 210, polyethylene glycol 300 having an average molecular weight of 285 to 315, polyethylene glycol 400 having an average molecular weight of 380 to 420, and polyethylene glycol 600 having an average molecular weight of 570 to 630, each of which is represented by the formula HOCH2(CH2OCH2)nCH2OH (where n is an integer). To this end, the above polyethylene glycols (manufactured by NOF Corporation) were mixed with luliconazole according to the formulation presented in Table 1 below, and the properties of the solution (presence of insoluble matter (luliconazole)) were visually evaluated.

N#C/C(=C1/SC[C@@H](c2ccc(Cl)cc2Cl)S1)n1ccnc1 [luliconazole, (R)-(−)-(E)-[4-(2,4-dichlorophenyl)-1,3-dithiolane-2-ylidene]-1-imidazolylacetonitrile]
solubility for luliconazole (in polyethylene glycol 400 compared to polyethylene glycol 200, 300 and 600): highest solubility
solubility for luliconazole (in polyethylene glycols 200, 300, 400, and 600): high solubility
